Test results from US11421145B2, “Oil recovery methods using a formulation containing an unsaturated zwitterionic surfactant and a polymer” (King Fahd University of Petroleum and Minerals, priority 2019, dated 2022).

What was measured:
Type in all cases: physicochemical
[1] = Solubility and compatibility in seawater (SW) and formation water (FW)
Protocol: Synthetic seawater (SW) and formation water (FW) were prepared using NaCl, Na2SO4, NaHCO3, CaCl2, and MgCl2. All the salts were obtained from Sigma-Aldrich, USA.
Solubility and compatibility of the surfactant in the reservoir and injection brine are the primary considerations for further evaluation of the unsaturated surfactant for EOR application. If the surfactant is not soluble in the seawater and formation brine, it can be rejected at the initial stage. […] After the compatibility test with SW and FW, the short-term thermal stability of the synthesized unsaturated surfactant was evaluated using TGA analysis. […] Only 3% weight loss was observed up to 200° C., which was mainly associated with solvent and water evaporation. […] TGA results helped to identify and eliminate the surfactants that had lower decomposition temperatures. However, for real field applications, long-term thermal stability of the surfactant must be considered, as the surfactant residence time in the reservoir could vary from a few days to a few months.

[2] = Short-term thermal stability by thermogravimetric analysis (TGA)
Protocol: The short-term thermal stability of the unsaturated surfactant was assessed using thermogravimetric analysis (TGA). The thermal stability for a longer period (2 weeks) was determined by FTIR and NMR. The synthesized unsaturated surfactant was dried and heated at 10° C./min in an SDT-Q600 instrument (TA Instruments) from room temperature to 600° C. under nitrogen atmosphere. The thermal stability for a longer period was determined by aging 1 wt % aqueous solution of the unsaturated surfactant at 90° C. for 15 days. FTIR, ^13C NMR, and ^1H NMR were used to identify the structural changes in the unsaturated surfactant after aging. A Nicolet 6700 spectrometer was used for FTIR analysis of the unsaturated surfactant, while a JEOL 500 MHz spectrometer was used for obtaining the NMR spectra.
Solubility and compatibility of the surfactant in the reservoir and injection brine are the primary considerations for further evaluation of the unsaturated surfactant for EOR application. If the surfactant is not soluble in the seawater and formation brine, it can be rejected at the initial stage. […] After the compatibility test with SW and FW, the short-term thermal stability of the synthesized unsaturated surfactant was evaluated using TGA analysis. […] Only 3% weight loss was observed up to 200° C., which was mainly associated with solvent and water evaporation. […]

[3] = Interfacial tension between crude oil and water, spinning drop tensiometer; conditions: for IFT after aging: after aging at 90° C. for 2 weeks
Excerpt: API gravity and molecular weight of the oil were 30 and 251 g mol^−1, respectively.
where γ0 is the surface tension of the brine (FW or SW), NA is the Avogadro number, dγ/dlnC is the slope below CMC in the surface tension plot, C is the surfactant concentration in brine, T is temperature, R is the gas constant, and n=1 for zwitterionic surfactants [Wang, Y., Zhang, Y., Liu, X., Wang, J., Wei, L., & Feng, Y. (2014) Effect of a hydrophilic head group on Krafft temperature, surface activities and rheological behaviors of Erucyl Amidobetaines. Journal of Surfactants and Detergents, 17:295-301—incorporated herein by reference]. The interfacial tension between crude oil and water was measured using a spinning drop tensiometer from Kruss (SITE 100). All the reported points are the average equilibrium values.
Interfacial tension is one of the main parameters to assess the performance of surfactants for EOR application. Interfacial tension depends on several parameters such as the nature of the crude oil, salinity, temperature, pH, surfactant type and its molecular structure, surfactant concentration, and residence time of the surfactant inside the reservoir. […] The spinning drop tensiometer can measure ultra-low IFT down to 10^−4 mN m^−1 at various temperatures. This equipment could go up to 90° C., but it was difficult to get a stable drop due to bubble formation, therefore the IFT calculated at 90° C. might not be an accurate representation. Therefore, measuring IFT at high temperature was avoided and another strategy was adopted. Specifically, several solutions at field conditions (90° C.) were aged for 2 weeks and then their IFT was compared with that of the original solution. The water/oil IFT was initially >9 mN m^1 in both FW and SW. […] The low CMC is advantageous because the same IFT reduction can be achieved at a very low surfactant concentration. In addition, IFT will not change considerably because of surfactant adsorption. In general, no considerable change in IFT was detected within the investigated temperatures and salinities. […] Canadian Journal of Chemical Engineering, 94:454-460; and Li, P., Yang, C., Cui, Z., Song, B., Jiang, J., & Wang, Z. (2016) A new type of sulfobetaine surfactant with double alkyl polyoxyethylene ether chains for enhanced oil recovery. Journal of Surfactants and Detergents, 19:967-977, each incorporated herein by reference in their entirety]. […] Journal of Surfactants and Detergents, 20:777-788; and Hussain, S. S., Kamal, M. S., & Sultan, A. S. (2017) Amido-amine-based cationic Gemini surfactants: Thermal and interfacial properties and interactions with cationic polyacrylamide. Journal of Surfactants and Detergents, 20:47-55, each incorporated herein by reference in their entirety].

[4] = 0.02 wt. % surfactant, FW, 60° C.
[5] = 0.02 wt. % surfactant, SW, 30° C.
[6] = 0.05 wt. % surfactant, FW, 60° C.
[7] = 0.05 wt. % surfactant, SW, 30° C.

precipitation or phase separation on dissolution ([1]; SW (57,643 ppm) and FW (213,734 ppm)): no precipitation or phase separation | solubility in SW and FW ([1]; seawater and formation water): excellent solubility | short-range thermal stability (TGA) [2]: excellent short-range thermal stability | weight loss (TGA) ([2]; up to 200° C., heating rate 10° C. min^−1, nitrogen): 3% | IFT ([3]; 0.01 wt. % surfactant, FW, 60° C.): 0.33 mN m^−1 | IFT ([3]; 0.01 wt. % surfactant, SW, 30° C.): 0.31 mN m^−1 | IFT ([3]; 0.01 wt. % surfactant, SW, 60° C.): 0.36 mN m^−1 | IFT [3, 4]: 0.25 mN m^−1 | IFT after aging [3, 4]: 0.27 mN m^−1 | IFT [3, 5]: 0.21 mN m^−1 | IFT after aging [3, 5]: 0.29 mN m^−1 | IFT ([3]; 0.02 wt. % surfactant, SW, 60° C.): 0.27 mN m^−1 | IFT [3, 6]: 0.23 mN m^−1 | IFT after aging [3, 6]: 0.26 mN m^−1 | IFT [3, 7]: 0.25 mN m^−1 | IFT after aging [3, 7]: 0.29 mN m^−1 | IFT ([3]; 0.05 wt. % surfactant, SW, 60° C.): 0.31 mN m^−1 | IFT ([3]; 0.075 wt. % surfactant, FW, 60° C.): 0.24 mN m^−1 | IFT ([3]; 0.075 wt. % surfactant, SW, 30° C.): 0.21 mN m^−1 | IFT ([3]; 0.075 wt. % surfactant, SW, 60° C.): 0.30 mN m^−1 | IFT ([3]; 0.1 wt. % surfactant, FW, 60° C.): 0.28 mN m^−1 | IFT ([3]; 0.1 wt. % surfactant, SW, 30° C.): 0.22 mN m^−1 | IFT ([3]; 0.1 wt. % surfactant, SW, 60° C.): 0.31 mN m^−1 | IFT ([3]; 0.2 wt. % surfactant, FW, 60° C.): 0.27 mN m^−1 | IFT ([3]; 0.2 wt. % surfactant, SW, 30° C.): 0.23 mN m^−1 | IFT ([3]; 0.2 wt. % surfactant, SW, 60° C.): 0.32 mN m^−1 | decrease in water/oil IFT on addition of surfactant ([3]; FW and SW, initial IFT >9): almost two orders of magnitude | oil/water IFT, order of magnitude ([3]; not affected much by temperature and salinity): ~10^−1 mN m^−1 | change of water/oil IFT after aging ([3]; solutions aged at 90° C. for 2 weeks): did not change
SMILES: CCCCCCCC/C=C\CCCCCCCC(=O)NCCC[N+](C)(C)CCCS(=O)(=O)[O-] [unsaturated surfactant, 3-(N-oleamidopropyl-N,N-dimethylammonium) propane sulfonate]
